The nature of series [1]: Metabolic stability assay, rat liver microsomes. As to conditions: for Remaining in rat liver microsomes (Sup Fig.6b): in % (unit assumed). Here is the method:
7. Metabolic stability assay. The metabolic profile of NHWD-870 was determined using mouse, rat, dog, monkey, and human liver microsomes using the protocols […]
No. Compound ID Exat Mass Stock Conc.
1) 100 mM potassium phosphate buffer, PH7.4; 2) 10mM MgCI2
1) Intermediate solution: Dilute 5 μL of compound or control from stock solution (10 mM) with 45 uL DMSO,then mixed with 450 μL 1:1 Methanol/Water (Conc.: 10 0 […]
2) Working solution: Dilute 50 μL from intermediate solution with 450 μL 100 mM potassium phosphate buffer (Conc.: 10 μM, 4.5%MeOH)
(3) NADPH regenerating system (final Isocitric dehydrogenase conc.= 1 unit/mL at […]
1) β-Nicotinamide adenine dinucleotide phosphate, Vendor: sigma Cat. No. N0505
2) Isocitric acid, Vendor: Sigma Cat. No. I1252
3) Isocitric dehydrogenase, Vendor: sigma Cat. No. I2002
(4) Liver microsome solution preparation (final concentration o f 0.5 mg protein/mL) […]
Cold ACN including 100 ng/mL Tolbutamide and 100 ng/mL Labetalol as internal […]
1) Add 10 μL compound or control working solution/well to all plates (T0, T5, T10, T20, T30, T60, NCF60) except matrix blank.
2) Dispense 680 μL/well microsome solution to 96-well plate as reserv oir according to […]
plate map. Then add 80 μL/well to every plate by Apricot, incubate the mixture of microsome solution and compound at 37℃ for about 10 min.
3) Add 10 μL 100 mM potassium phosphate buffer/well to NCF60, incubate at 37℃, […]
4) After pre-warming, dispense 90 μL/well NADPH regenerating system to 96-well plate as reservoir according to the plate map. Then add 10 μL/well to every plate by Apricot to start reaction.
5) Incubate at 37℃, start timer 2.
6) Add 300 (μL/well) stop solution (cold in 4℃, including 100 ng/mL Tolbutamide and 100 ng/mL Labetalol) to terminate the reaction.
7) The sampling plates are shaked for approx 10 min.
8) Samples are centrifuged at 4000 rpm for 20 min under 4℃.
9) While centrifuging, load 8×new 96-well plate with 300 μL HPLC water, then transfer 100 μL supernatant, mixed for LC/MS/MS.
Use equation of first order kinetics to calculate t1/2 and Clin t(mic): […]
Equation of first order kinetics: […]

The subject of series [2] is human melanoma patient-derived xenograft (PDX). Briefly: Human melanoma patient-derived xenograft (PDX) tumor growth. The format is in vivo, NSG mice. As to conditions: human melanoma PDX, once daily (5 days on, 2 days off) 21 days, NHWD-870-HCl. The text has this:
PO, oral administration; QD, once daily; BID, twice daily. b–d Tumor growth curves for A2780 ovarian tumor (n = 5) (b), TMD8 large B cell lymphoma (n = 6) (c), and B16F10 melanoma (n = 5) (d) bearing mice treated with the indicated compounds once daily for 11-21 days. e, f Tumor growth curves for A375 melanoma (n = 6) (e), and patient-derived xenograft (PDX) of melanoma (n = 5) (f) bearing mice treated with the indicated compounds once daily (5 days on, 2 days off) for 21 days. For d–f, NHWD-870 used is NHWD-870-HCl synthesized using Suzuki coupling route. Data are presented as mean ± SEM in (a, b, d, f) and mean + SEM in (c, e). p values were calculated using two-tailed, unpaired t tests. *p < 0.05; **p < 0.01; ***p < 0.001. Source data are provided as a Source Data file.
4–6 weeks old female BALB/c nude mice were used for most experiments, with the exception of 6–8 weeks old female C57BL/6 mice were used for B16F10 experiments, and 6–8 weeks old male BALB/c nude mice and SD rats were used for pharmacokinetic experiments. All animals were purchased from Shanghai SIPPR-Bk Lab Animal Co., Ltd. All animals were housed under a regimen of 12 h light/12 h dark cycles and specific pathogen-free conditions. 5×10^6 NCI-H526, ES-2, MDA-MB231, A2780, A375, B16F10, and TMD-8 cells (0.1 ml) were injected subcutaneously into female nude mice. The melanoma patient-derived xenograft model was derived from a human melanoma sample (BRAF, NARS and NF1 wild type, and p53 mutant) removed from a patient in Xiangya Hospital. Surgically removed tumor fragments were implanted subcutaneously into female NSG mice. When the tumors grew to ~1000 mm^3, they were harvested and cryopreserved or immediately re-implanted for expansion or experiments. Mouse body weight and tumor sizes were measured every 3 days. Once the tumors grew to 150–200 mm^3, mice were treated with the compounds as described in the Figures. 1 × 10^6 A2780 cells (1 ml) were injected into the abdominal cavity of nude mice. Ascitic volume and tumor weight were measured by an electronic balance. All the procedures were evaluated and approved by the Institutional Animal Care and Use Committee of Central South University and Yale University.

Molecules are shown by their SMILES.

Consider `Cc1nnn(C)c1-c1cnc2c3c4cnn(C)c4ccc3n([C@H](c3ccccc3)C3CCOCC3)c2c1` [NHWD-870], for which, in series [1] (rat liver microsomes), the “Remaining (T=60min)” value is listed as 22.3%. Besides, in series [1] (rat liver microsomes, no cofactor), the “Remaining (*NCF=60min)” value came out at 76.0%. Further, in series [1] (rat, liver microsomes, pH 7.4), the CLint scaled at 1 µM turned out to be 92 mL/min/kg. In series [1] (rat, liver microsomes, pH 7.4), the half-life at 1 µM stood at 27.1 min. This molecule showed an intrinsic clearance (microsomal CLint) at 1 µM in series [1] (rat, microsomes, pH 7.4) of 51.1 µL/min/mg. Also, the “Remaining in rat liver microsomes (Sup Fig.6b)” value was determined as 100 in series [1] (time 0); 91.753 in series [1] (time 5); 75.9 in series [1] (time 10); 52.356 in series [1] (time 20); 42.131 in series [1] (time 30); 22.275 in series [1] (time 60). In addition, in series [2], the “effect on tumor growth” value was “very strong tumor inhibitive effects”.

Source of the values: article PMC7156724, “Potent BRD4 inhibitor suppresses cancer cell-macrophage interaction” (Nature Communications, 2020).
